According to PMC2833264 (Photosynthesis research, 2009):

Molecular target: T1, C. reinhardtii nitrite reductase (Chlamydomonas reinhardtii, UniProt Q9ZR67)
T1 sequence (Q9ZR67 29-589): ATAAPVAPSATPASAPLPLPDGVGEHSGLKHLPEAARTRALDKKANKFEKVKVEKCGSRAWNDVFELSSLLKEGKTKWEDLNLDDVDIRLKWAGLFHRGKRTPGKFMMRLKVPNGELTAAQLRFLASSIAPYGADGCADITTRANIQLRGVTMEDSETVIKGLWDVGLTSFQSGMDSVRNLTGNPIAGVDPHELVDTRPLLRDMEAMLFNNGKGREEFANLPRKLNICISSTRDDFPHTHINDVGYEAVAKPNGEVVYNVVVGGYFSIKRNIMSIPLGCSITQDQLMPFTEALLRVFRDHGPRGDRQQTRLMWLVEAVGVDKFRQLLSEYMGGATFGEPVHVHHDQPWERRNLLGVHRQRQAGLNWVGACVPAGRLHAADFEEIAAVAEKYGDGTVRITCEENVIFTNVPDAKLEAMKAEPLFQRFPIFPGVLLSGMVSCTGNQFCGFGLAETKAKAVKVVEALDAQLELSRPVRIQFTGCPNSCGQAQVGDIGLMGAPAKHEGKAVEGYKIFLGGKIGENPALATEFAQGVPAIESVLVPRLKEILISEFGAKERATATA
Test: spectral perturbation titration
Format: binding

O=NO [nitrite]
Kd: 50 µM
